Entries after “also recorded” stand apart in the source; their conditions may differ.

The subject of data set [1] is MCF10A. The experiment in a line: Raptinal toxicity in various cell lines, 24 hour IC50. It is filed as cell-based. Conditions: MCF-10A; MCF10A (Human Breast Tissue); 24 hour incubation; mean ± SD.
For data set [2], the system named is 143B. The experiment in a line: Raptinal toxicity, 24 hour IC50 (sulforhodamine B assay for adherent cells). It is filed as cell-based. Conditions: 143B (Human Osteosarcoma); 24 hour incubation; mean ± SD. As to the method:
(§1) Sulforhodamine B Assay for Adherent Cells.
(§2) Serial dilutions of compound in 100% DMSO were added in triplicate (2 μL to each well) to empty wells of a 96-well plate. Adherent cells (3T3, Hs888Lu, MCF-7, HeLa, WT-MEF, 4T1, B16-F10, SK-MEL-5, MIA PaCa2, BT-549, MDA-MB-436, 143B, HOS, H460, H1993) cells were added to each well (5×10^3 cells in 198 μL of RPMI 1640, DMEM or EMEM media). The plates were incubated for 24 hours. The media was removed from the plate and ice-cold trichloroacetic acid (100 μL of 10% w/v trichloroacetic acid) was added to the plates which were then incubated at 4° C. overnight to fix the cells. The trichloroacetic acid was removed and the wells washed with 200 μL of de-ionized water 5 times. Sulforhodamine B (200 μL of 0.04% sodium salt dissolved in 1% acetic acid) was added to each well and the plates incubated at room temperature for 30 min. Excess sulforhodamine B was removed by washing the plates 5 times with 1% acetic acid. The bound dye was released by the addition of unbuffered Tris-base (200 μL of 10 mM solution) and after a 30 min incubation at room temperature the absorbance at 510 nm was measured (Molecular Devices SpectraMax Plus 384 plate reader). The mean IC50 values and standard deviations were determined from three independent experiments.
Background: Sulforhodamine B stains cellular protein and so reports cell mass.

Data set [3] has as its system 3T3. The data set is described as above. It is filed as cell-based. Conditions: NIH3T3; 3T3 (Mouse Embryonic Fibroblasts); 24 hour incubation; mean ± SD. On the procedure:
as §1, §2

The subject of data set [4] is 4T1. Described as above. The format is cell-based. Particulars: 4T1 (Mouse Breast Cancer); 24 hour incubation; mean ± SD. On the procedure: as §1, §2
Data set [5] relates to B16-F10. Described as above. Conditions: B16-F10 (Mouse Melanoma); 24 hour incubation; mean ± SD. The format is cell-based. As to the method: as §1, §2
Data set [6] relates to BT-549. The data set is described as above. It is filed as cell-based. Conditions: BT-549 (Human Breast Cancer); 24 hour incubation; mean ± SD. On the procedure:
as §1, §2

Data set [7] concerns H1993. The data set is described as above. The format is cell-based. Conditions: NCI-H1993; H1993 (Human Lung Cancer); 24 hour incubation; mean ± SD. On the procedure: as §1, §2
The test system of data set [8] is H460. The data set is described as above. The format is cell-based. Particulars: NCI-H460; H460 (Human Lung Cancer); 24 hour incubation; mean ± SD. On the procedure: as §1, §2
Data set [9] concerns HOS. Described as above. The format is cell-based. Conditions: HOS (Human Osteosarcoma); 24 hour incubation; mean ± SD. As to the method: as §1, §2
Data set [10] has as its system HeLa. The data set is described as above. The format is cell-based. Particulars: HeLa (Human Cervical Cancer); 24 hour incubation; mean ± SD. On the procedure:
as §1, §2

Data set [11] relates to Hs888Lu. The data set is described as above. Conditions: Hs888Lu (Human lung fibroblast); 24 hour incubation; mean ± SD. It is filed as cell-based. On the procedure:
as §1, §2

Data set [12] concerns MCF-7. The description is as above. The format is cell-based. Conditions: MCF7; MCF-7 (Human Breast Cancer); 24 hour incubation; mean ± SD. As to the method: as §1, §2
Data set [13] relates to MDA-MB-436. Described as above. It is filed as cell-based. Particulars: MDA-MB-436 (Human Breast Cancer); 24 hour incubation; mean ± SD. As to the method: as §1, §2
For data set [14], the system named is MIA PaCa-2. The description is as above. It is filed as cell-based. Conditions: MIA PaCa-2 (Human Pancreatic Cancer); 24 hour incubation; mean ± SD. As to the method:
as §1, §2

For data set [15], the system named is SK-MEL-5. The description is as above. The format is cell-based. Particulars: SK-MEL-5 (Human Melanoma); 24 hour incubation; mean ± SD. As to the method:
as §1, §2

In data set [16] the test system is WT-MEF. Described as above. It is filed as cell-based. Conditions: Fibroblast; WT-MEF (Mouse Embryonic Fibroblasts); 24 hour incubation; mean ± SD. As to the method: as §1, §2
In data set [17] the test system is cancer cell lines (HL-60, SK-MEL-5, U-937). The experiment in a line: Initial screens against cancer cell lines. The format is cell-based, Human.
For data set [18], the system named is isolated mitochondria (U-937 cells). The data set is described as follows: In vitro cytochrome c release from isolated mitochondria. The format is biochemical, Human. Particulars: respiring and non-respiring conditions, 30 min, Western blot. As to the method:
In Vitro Cytochrome c Release from Isolated Mitochondria.
U-937 cells (120×10^6) were washed twice in PBS and resuspended in 800 μL ice-cold lysis buffer (50 mM HEPES, 5 mM DTT, 5 mM PMSF, 25 mM MgCl2, protease cocktail inhibitor, pH 7.5) and the cells were passed through a 26 gauge needle 26 times using a 1 mL syringe until >95% cells were lysed as determined by trypan blue. Isolation buffer (0.25 M sucrose in lysis buffer pH 7.5) was added to the lysed cells (2.4 mL) and mixed by inversion. Debris was removed by centrifugation (500×g. 10 min at 4° C.) and the mitochondria in the supernatant were pelleted by centrifugation (10000×g, 5 min at 4° C.). The mitochondrial pellet was resuspended in washing buffer (2 mL of 50 mM HEPES, 250 mM KCl, 25 mM EDTA, pH 7.5) and incubated on ice for 2 min and centrifuged (12500×g, 5 min). The mitochondrial pellet was resuspended in either non-respiration (300 μL of 50 mM HEPES, 5 mM DTT, 5 mM PMSF, 25 mM MgCl2, protease inhibitor, 250 mM KCl, 25 mM EDTA, pH 7.5) or respiration buffer (300 μL of 50 mM HEPES, […], 5 mM ATP, 0.4 mM ADP, 25 mM sodium succinate, 10 mM potassium phosphate dibasic, pH 7.5). […]
In general terms: Immunoblotting shows a protein as a band on a membrane.

Data set [19] is described as follows: in vitro. Conditions: human, U-937 cells.

By IC50 is commonly meant the point on the concentration scale where inhibition reaches its midpoint. Lower therefore signals inhibition by little substance. Regarding `O=CC1(C2(C=O)c3ccccc3-c3ccccc32)c2ccccc2-c2ccccc21` [Raptinal, [9,9′]bifluorenyl-9,9′-dicarbaldehyde], the IC50 came out at 3000 ± 200 nM in [1]; 1200 ± 500 nM in [2]; 1000 ± 200 nM in data set [3]; 1000 ± 200 nM in [4]; 1600 ± 200 nM in data set [5]; 1300 ± 400 nM in [6]. In addition, the IC50 in data set [7] was determined as 1200 ± 100 nM; in [8] it was 1100 ± 100 nM; in data set [9], 1000 ± 100 nM; in data set [10], 600 ± 400 nM; in data set [11], 1700 ± 100 nM; in data set [12], 3.4 ± 0.1 µM. The half-maximal inhibitory concentration (IC50) in data set [13] is 1100 ± 100 nM; in [14], 1900 ± 800 nM; in data set [15], 700 ± 100 nM; in [16], 2400 ± 700 nM; in data set [17] (Homo sapiens, HL-60, SK-MEL-5, U-937, 24 hour assays), 150 to 700 nM. Also, in data set [17] (cancer cells treated 1 hour, extensive washing to remove compound, read at 24-hour mark), the “cell death after short treatment and washout” value was “significant cell death”. The “cytochrome c release from isolated mitochondria” value in data set [18] is reported as “does not induce cytochrome c release; also recorded: did not directly induce cytochrome c release”. Moreover, in data set [19], the cytotoxicity at 2 h, 10 µM is around 80%.

(Values after patent publication US9682060B2, “Small molecules that induce intrinsic pathway apoptosis” (The Board of Trustees of the University of Illinois, priority 2015, dated 2017).)
